Measured values: patent US5789395A, “Method of using tetracycline compounds for inhibition of endogenous nitric oxide production” (The Research Foundation of State University of New York, priority 1996, dated 1998)
Values after ≈ are worked out from the molar mass of the structure shown. Like-named read-outs stand apart in the source and are kept apart here.

What was measured:
collagenase = conditions: cited from earlier work
cartilage = conditions: 20-50 μg/mL; Cole et al. 1994; cited from earlier work
133 kD iNOS = test: iNOS protein expression in LPS-activated RAW 264.7 cells (Western blot); type: cell-based, murine
Procedure: (§1) RAW 264.7 cells were activated with 100 ng/mL LPS for 16-18 h, with and without doxycycline or minocycline (20-80 μg/mL) or with hydrocortisone (10 μM). Cell-free extracts were prepared as described above. The extract s were analyzed for 133 kD iNOS by Western blotting, using specific anti-iNOS antibodies.
(§2) Equal amounts of protein (25-50 μg) estimated by BCA reagent (Pierce, Rockford, Ill.) were loaded onto SDS-PAGE gels and stained to verify the concentrations of various protein fractions by examining the intensities of the protein bands on the gels. Western blot analysis was carried out from the same cell extracts. The Western-blotted membrane was probed with a specific anti-murine iNOS monoclonal antibody (Transduction Laboratories, Lexington, Ky.), as specified by the supplier. The same blot was also probed with an anti-actin antibody generously provided by Dr. James L. Lessard (Children's Hospital Medical Center, Cincinnati, Ohio). The blots were developed using the ECL Western blot system (Amersham, Arlington Heights, Ill.). Quantitation of the bands was performed using a densitometer from Molecular Dynamics (Sunnyvale, Calif.). FIG. 5 is representative.

[1] = system: iNOS in RAW 264.7 murine macrophage cells; test: nitrite accumulation in LPS-stimulated RAW 264.7 cells; type: cell-based; conditions: for IC50: Mus musculus
Procedure: RAW 264.7 murine macrophage cells (American Type Culture Collection, Rockville, Md.) were incubated with and without doxycycline or minocycline (5-80 μg/mL) for 1-2 h followed by activation through addition of 100 ng/mL of LPS (Sigma Chemical Co., St. Louis, Mo.) to induce iNOS (Stuehr et al. 1991). After 14-20 h of incubation, the medium was used to estimate nitrite accumulation by the modified Griess reaction (Gilliam et al. 1993). The values are represented as μM of nitrite accumulated at a given time interval; n=3. The statistics were derived using unpaired Student's t test. The data represent one of three similar experiments.

[2] = system: gelatinase in UMR 106-01 osteoblastic cell line; conditions: Vernillo et al. 1993; cited from earlier work
iNOS mRNA = iNOS mRNA expression in LPS-stimulated RAW 264.7 cells (RT-PCR); type: cell-based, murine; conditions: 20-40 μg/mL
Procedure: Doxycycline and minocycline may suppress iNOS before the synthesis of the enzyme, leading to inhibition of iNOS protein expression, specific activity and accumulation of nitrite. […] Therefore, to determine the level at which tetracycline inhibited iNOS protein expression, RAW 264.7 cells treated with LPS in the presence or absence of doxycycline and minocycline were analyzed for iNOS mRNA by semi-quantitative RT-PCR.
The presence of iNOS and β-actin mRNA in cells was analyzed by reverse transcription (RT) of total RNA followed by PCR amplification of the cDNA. The sense and antisense oligonucleotides for iNOS were, respectively, 5'-ACGGAGAAGCTTAGATCTGGAGCAGAAGTG-3'(142 to 171) (SEQ ID NO:1) and 5'-CTGCAGGTTGGACCACTGGATCCTGCCGAT-3' (767 to 796) (SEQ ID NO:2). The sense and antisense primers for β-actin were 5'-TCCTTCGTTGCCGGTCCACA-3' (44 to 63) (SEQ ID NO:3) and 5'-CGTCTCCGGAGTCCATCACA-3' (534 to 552) (SEQ ID NO:4), respectively. The predicted PCR product of the iNOS cDNA was 654 bp; that of the β-actin cDNA was 508 bp. The polymerase chain reaction was carried out in an automated DNA thermal cycle (Perkin-Elmer Cetus, Norwalk, Conn.). The total RNA was extracted using TRI-Reagent (MRC Inc., Cincinnati, Ohio). The cDNA was prepared from equal amounts (1-5 μg) of total RNA using a SuperScript™ RNase H Reverse Transcriptase (Gibco BRL, Gaithersburg, Md.). An equal amount of the cDNA was used to amplify the mRNA by PCR. PCR amplification was performed in 50 μL solution containing 1.5 mM MgCl2, 500 ng iNOS primer, 100 ng β-actin primer, 0.2 mM of each dNTP, 2.5 units of Taq DNA polymerase (Gibco). The cycle conditions for amplification of cDNA were 1 min at 94° C., 1-2 min at 55° C. and 3 min at 72° C. for 30 cycles for both iNOS and β-actin. The PCR product was analyzed by electrophoresis on 1.0% agarose gels.
RT-PCR analysis of iNOS and βactin mRNA expression in RAW 264.7 cells was carried out after stimulation with LPS±doxycycline or minocycline. […] Equal amounts of RNA were analyzed for iNOS and β-actin expression as described above.

[3] = system: gelatinase in ROS 17/2.8 osteoblastic cell line; conditions: Vernillo et al. 1993; cited from earlier work
β-actin = β-actin levels in LPS-activated RAW 264.7 cells (Western blot); type: cell-based, murine; conditions: 20-80 μg/mL
Procedure: as §1, §2

dog models of OA = conditions: prophylactic administration; Yu et al. (1992); cited from earlier work
[4] = system: patients with mild and moderate arthritis; conditions: Tilley et al. 1995; cited from earlier work

SMILES	anti-collagenase activity (collagenase)	effect on proteoglycan loss and cell death (cartilage)	inhibition of iNOS protein expression (133 kD iNOS; 20 μg/mL)	inhibition of iNOS protein expression (133 kD iNOS; 40 μg/mL)	inhibition of iNOS protein expression (133 kD iNOS; 80 μg/mL)	concentration at which inhibitory effects on iNOS expression (mRNA, specific activity and nitrite accumulation) reach a plateau [1]	IC50 ([1]; RAW264.7, 14 h of incubation, read-out: IC50)	IC50 ([1]; RAW264.7, 20 h of incubation, read-out: IC50)	concentration required to inhibit iNOS-mediated production of NO by >50% ([1]; compared to minocycline, 14 h and 20 h)	IC50, gelatinase activity [2]	decrease of iNOS mRNA expression (iNOS mRNA)	IC50, gelatinase activity [3]	effect on the levels of β-actin synthesis (β-actin)	severity of OA (dog models of OA)	IC50 ([1]; RAW264.7, 14 h)	IC50 ([1]; RAW264.7, 20 h)	safety and efficacy in arthritis [4]
C[C@H]1c2cccc(O)c2C(O)=C2C(=O)[C@]3(O)C(O)=C(C(N)=O)C(=O)[C@@H](N(C)C)[C@@H]3[C@@H](O)[C@@H]21 [doxycycline]	inhibits collagenase activity via direct effects on the enzyme	blocks proteoglycan loss and reduces the cell death associated with proteoglycan loss	11%	24%	65%	40 to 80 µg/mL	72 µg/mL (≈ 162 µM)	22 µg/mL (≈ 49.5 µM)	significantly higher concentrations	> 200 µg/mL	> 50%	20 to 30 µg/mL	no significant effect	markedly reduced the severity of OA	–	–	–
CN(C)c1ccc(O)c2c1C[C@H]1C[C@H]3[C@H](N(C)C)C(O)=C(C(N)=O)C(=O)[C@@]3(O)C(O)=C1C2=O [minocycline]	–	–	14%	49%	83%	40 to 80 µg/mL	–	–	–	–	> 50%	–	no significant effect	–	17 µg/mL (≈ 37.2 µM)	12 µg/mL (≈ 26.2 µM)	safe and effective for patients with mild and moderate arthritis
